pIC50: −log10 of the molar value. Where two headings read alike, the source gives them in different places.
Tests used:
TTK = target: T1, TTK (Homo sapiens, UniProt P33981); test: TTK assay: screening of TTK kinase activity suppressing action using p38 MAPK peptide; format: biochemical
T1 sequence (P33981 1-857): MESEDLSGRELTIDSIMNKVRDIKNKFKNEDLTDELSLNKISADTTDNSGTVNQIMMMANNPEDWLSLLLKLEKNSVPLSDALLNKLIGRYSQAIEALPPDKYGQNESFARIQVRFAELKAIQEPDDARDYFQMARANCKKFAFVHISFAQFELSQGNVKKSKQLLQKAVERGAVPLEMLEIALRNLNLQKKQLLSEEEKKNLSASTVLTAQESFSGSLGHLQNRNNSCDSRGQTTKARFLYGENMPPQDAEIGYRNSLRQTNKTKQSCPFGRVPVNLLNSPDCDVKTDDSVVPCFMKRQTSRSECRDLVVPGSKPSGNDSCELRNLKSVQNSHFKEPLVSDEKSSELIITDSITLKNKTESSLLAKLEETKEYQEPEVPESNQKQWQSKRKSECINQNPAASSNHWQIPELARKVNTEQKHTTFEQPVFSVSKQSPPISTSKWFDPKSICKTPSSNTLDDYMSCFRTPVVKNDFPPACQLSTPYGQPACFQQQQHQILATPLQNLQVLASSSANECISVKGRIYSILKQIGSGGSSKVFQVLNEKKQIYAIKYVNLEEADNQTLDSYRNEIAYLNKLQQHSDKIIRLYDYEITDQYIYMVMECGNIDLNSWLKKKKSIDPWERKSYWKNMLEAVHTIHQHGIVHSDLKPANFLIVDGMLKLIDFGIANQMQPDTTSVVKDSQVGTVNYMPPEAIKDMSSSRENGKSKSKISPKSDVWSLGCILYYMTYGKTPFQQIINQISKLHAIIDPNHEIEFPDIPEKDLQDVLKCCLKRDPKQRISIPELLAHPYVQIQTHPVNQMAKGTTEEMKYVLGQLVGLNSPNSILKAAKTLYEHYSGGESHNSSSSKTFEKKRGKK
Description: Screening of a compound having a TTK kinase activity suppressing action using p38 MAPK peptide
A test substance 1.0 μL (solvent: 10% (v/v) DMSO), TTK solution 5 μL (composition: 4 μg/ml TTK, 25 mM Tris-HCl, pH7.5, 5 mM β-glycerophosphate, 2 mM DTT, 0.1 mM Na3VO4, 5 mM MgCl2, 0.1% (w/v)BSA) and a substrate solution 5 μL (composition: 60 μM p38 MAPK peptide, 60 μM ATP, 25 mM Tris-HCl, pH7.5, 5 mM β-glycerophosphate, 2 mM DTT, 0.1 mM Na3VO4, 5 mM MgCl2, 0.1% (w/v)BSA) were mixed in the wells of a 384-well microtiter plate (manufactured by Corning Incorporated) made of polypropylene and loaded in a constant temperature and humidity room.
From the resultant mixture, an aliquot of 1.7 μL was taken out and mixed with the reaction terminating solution (60 μl) in the wells of a 384-well microtiter plate (manufactured by Corning Incorporated) made of polypropylene. Thereafter, 40 μL of the mixture was transferred to a 384-well black NeutrAvidin plate (PIERCE), sealed and incubated under room temperature for 30 minutes. […] Similarly, the plate was washed with TTBS (100 μL) three times, 40 μl of a secondary antibody solution (Eu-N1 labeled Anti-mouse IgG (Perkin Elmer, #AD0124)) was added and incubated under room temperature for 30 minutes. After the plate was washed with TTBS (100 μL) five times, 40 μL of an enhance solution (Perkin Elmer) was added and incubated under room temperature for 5 minutes. […] Based on the fluorescence value in the absence of a test substance, the suppression activity of a test substance was measured.

A549 = A549 assay: screening of cancer cell growth inhibiting compound; format: cell-based; conditions: Homo sapiens; for pIC50: A549 cells, read-out: A549 IC50
Description: Screening of Cancer Cell Growth Inhibiting Compound
A cell suspension solution (RERF-LC-AI, A549: 1×10^4/ml, MRC5: 3×10^4/ml and 1×10^5/ml) adjusted to an appropriate concentration with D-MEM (hereinafter, referred to as a culture solution and manufactured by Nacalai Tesque Inc.) supplemented with 10% FBS (HyClone) was added to the wells of a 96-well plate (hereinafter, well plate) at a rate of 100 μL/well and incubated in a CO2 incubator at 37° C. for a day. […] Next, cells were added to each well of the well plate prepared and the above compound dilution solution was added at a rate of 100 μL/well to obtain 200 μL/well. Thereafter, the cells were incubated in the CO2 incubator at 37° C. for further three days. To each well of the well plate, 10 μL of a WST-8 kit (Kishida Chemical Co., Ltd.) solution for counting the number of cells was added and a color reaction was performed in the CO2 incubator for 1 to 4 hours. After the absorbance at 450 nm (reference wavelength: 620 nm) was measured by a microplate reader, suppressing action of the test substance was calculated based on the absorbance value in the absence of a test substance.

[1] = p38 MAPK peptide substrate, read-out: TTK IC50

Compound | pIC50 (TTK; [1]) | pIC50 (A549; 72 h, three days, WST-8) | other results
N#Cc1ccc(-c2cn3c(-c4ccc(C(=O)NC5CC5)cc4)cnc3c(NCc3cccs3)n2)cc1 [Example 1-212] | 8.14 | 6.30 to 7.30 | 
Cn1ccc(CNc2cc(NC3CCCCC3)nn3c(-c4ccc(C(=O)NC5CC5)cc4)cnc23)n1 [Example 2-159] | 7.58 | 6.30 to 7.30 | 
O=C(NC1CC1)c1ccc(-c2cnc3c(NCC4CCOCC4)cc(OC4CCNCC4)nn23)cc1 [Example 2-180] |  |  | pIC50 (TTK; read-out: TTK IC50): 7.91; pIC50 (A549; values given as IC50 intervals): 5.00 to 6.00
C[C@@H]1CN(c2cc(NCC3CCOCC3)c3ncc(-c4ccc(C(=O)NC5CC5)cc4)n3n2)C[C@H](C)O1 [Example 2-41] | 8.00 | 6.30 to 7.30 | 
O=C(NC1CC1)c1ccc(-c2cnc3c(NCC4CCOCC4)c(F)c(OC4CCCC4)nn23)cc1 [Example 2-217] |  |  | pIC50 (TTK; read-out: TTK IC50): 7.86; pIC50 (A549; values given as IC50 intervals): 5.00 to 6.00
CN1CCC(CNc2cc(NC3CCCCC3)nn3c(-c4ccc(C(=O)NC5CC5)cc4)cnc23)CC1 [Example 2-126] | 7.63 | 6.30 to 7.30 | 
Nc1ccc(Oc2cc(NCC3CCOCC3)c3ncc(-c4ccc(C(=O)NC5CC5)cc4)n3n2)cc1 [Example 2-92] | 8.40 | 6.30 to 7.30 | 
COc1cc(C#N)ccc1-c1cc(NCC2CCOCC2)c2ncc(-c3ccc(C(=O)NC4CC4)cc3)n2n1 [Example 2-205] |  |  | pIC50 (TTK; read-out: TTK IC50): 8.35; pIC50 (A549; values given as IC50 intervals): ≥ 7.30
O=C(NC1CC1)c1ccc(-c2cnc3c(NCc4nccs4)cc(NC4CCCCC4)nn23)cc1 [Example 2-160] | 8.51 | 6.30 to 7.30 | 
O=C(NC1CC1)c1ccc(-c2cnc3c(NCC4CCOCC4)cc(NC4CCCC4)nn23)cc1O [Example 2-229] |  |  | pIC50 (TTK; read-out: TTK IC50): 8.36; pIC50 (A549; values given as IC50 intervals): 6.30 to 7.30
C#CC(C)(C)Nc1cc(NCC2CCOCC2)c2ncc(-c3ccc(C(=O)NC4CC4)cc3)n2n1 [Example 2-85] | 8.40 | 5.00 to 6.00 | 
CC1CCCCC1Nc1cc(NCC2CCOCC2)c2ncc(-c3ccc(C(=O)NC4CC4)cc3)n2n1 (centres unmarked) [Example 2-63] | 8.54 | ≥ 7.30 | 
CCC(C)Nc1cc(NC2CCCCC2)nn2c(-c3ccc(C(=O)NC4CC4)cc3)cnc12 (centres unmarked) [Example 2-143] | 7.70 | 6.00 to 6.30 | 
CC(=O)NCC1CN(c2cc(NCC3CCOCC3)c3ncc(-c4ccc(C(=O)NC5CC5)cc4)n3n2)CCO1 (centres unmarked) [Example 2-48] | 7.86 | 5.00 to 6.00 | 
O=C(NC1CC1)c1ccc(-c2cnc3c(NCC4CCOCC4)cc(NCC4CCCCC4)nn23)cc1 [Example 2-16] | 8.32 | 6.30 to 7.30 | 
CC(C)(O)CNc1nc(-c2ccc(C#N)cc2)cn2c(-c3ccc(C(=O)NC4CC4)cc3)cnc12 [Example 1-235] | 7.89 | 6.30 to 7.30 | 
N#Cc1ccc(-c2cc(NCC3CCOCC3)c3ncc(-c4ccc(C(=O)NC5CC5)cc4)n3n2)c(Cl)c1 [Example 2-206] |  |  | pIC50 (TTK; read-out: TTK IC50): 8.55; pIC50 (A549; values given as IC50 intervals): 6.30 to 7.30
N#Cc1ccc(-c2cn3c(-c4ccc(C(=O)NC5CC5)cc4)cnc3c(NC[C@H]3CC[C@H](C(=O)O)CC3)n2)cc1 [Example 1-239] | 8.32 | 5.00 to 6.00 | 
Cc1cc(CNc2cc(NC3CCCCC3)nn3c(-c4ccc(C(=O)NC5CC5)cc4)cnc23)no1 [Example 2-158] | 8.49 | 6.30 to 7.30 | 
O=C(NC1CC1)c1ccc(-c2cnc3c(NCC4CCOCC4)cc(Nc4ccccc4O)nn23)cc1 [Example 2-34] | 8.43 | 6.30 to 7.30 | 

Compound | pIC50 (TTK; [1]) | pIC50 (A549; 72 h, three days, WST-8) | other results
Cc1nc(C)c(-c2cc(NCC3CCOCC3)c3ncc(-c4ccc(C(=O)NC5CC5)cc4)n3n2)s1 [Example 2-9] | 7.71 | 6.00 to 6.30 | 
O=C(NC1CC1)c1ccc(-c2cnc3c(NCc4ccc(F)cc4)cc(NC4CCCCC4)nn23)cc1 [Example 2-134] | 8.18 | 6.30 to 7.30 | 
CC1(Nc2cc(NCC3CCOCC3)c3ncc(-c4ccc(C(=O)NC5CC5)cc4)n3n2)CCCCC1 [Example 2-74] | 8.59 | ≥ 7.30 | 
N#Cc1ccc(-c2cn3c(-c4ccc(C(=O)NC5CC5)cc4)cnc3c(NCCCO)n2)cc1 [Example 1-218] | 7.84 | 6.30 to 7.30 | 
O=C(NC1CC1)c1ccc(-c2cnc3c(NCC4CCOCC4)cc(CC4CCCCC4)nn23)cc1 [Example 2-208] |  |  | pIC50 (TTK; read-out: TTK IC50): 8.15; pIC50 (A549; values given as IC50 intervals): 6.30 to 7.30
CCCNc1cc(NCC2CCOCC2)c2ncc(-c3ccc(C(=O)NC4CC4)cc3)n2n1 [Example 2-21] | 8.15 | 6.30 to 7.30 | 
COCCCCNc1cc(NC2CCCCC2)nn2c(-c3ccc(C(=O)NC4CC4)cc3)cnc12 [Example 2-138] | 8.26 | 6.30 to 7.30 | 
COc1ccc(Oc2cc(NCC3CCOCC3)c3ncc(-c4ccc(C(=O)NC5CC5)cc4)n3n2)c(F)c1 [Example 2-112] | 8.57 | ≥ 7.30 | 
O=C(NC1CC1)c1ccc(-c2cnc3c(NCC4CCOCC4)cc(NCC(F)(F)F)nn23)cc1 [Example 2-30] | 7.92 | 6.30 to 7.30 | 
N#CCCNc1nc(-c2ccc(C#N)cc2)cn2c(-c3ccc(C(=O)NC4CC4)cc3)cnc12 [Example 1-213] | 7.79 | 6.30 to 7.30 | 
O=C(NC1CC1)c1ccc(-c2cnc3c(NCC4CCOCC4)cc(OC4CCCCCC4)nn23)cc1 [Example 2-181] |  |  | pIC50 (TTK; read-out: TTK IC50): 7.99; pIC50 (A549; values given as IC50 intervals): 6.30 to 7.30
Cc1cc(C(=O)NC2CC2)ccc1-c1cnc2c(NCC3CCOCC3)cc(NC3CCCC3)nn12 [Example 2-226] |  |  | pIC50 (TTK; read-out: TTK IC50): 8.16; pIC50 (A549; values given as IC50 intervals): 6.30 to 7.30
Nc1ccccc1Oc1cc(NCC2CCOCC2)c2ncc(-c3ccc(C(=O)NC4CC4)cc3)n2n1 [Example 2-97] | 8.48 | ≥ 7.30 | 
CC(C)CNc1cc(NC2CCCCC2)nn2c(-c3ccc(C(=O)NC4CC4)cc3)cnc12 [Example 2-2, 4-(6-(Cyclohexylamino)-8-(isobutylamino)imidazo[1,2-b]pyridazin-3-yl)-N-cyclopropylbenzamide] |  |  | pIC50 (TTK): 7.93; IC50 (A549; A549, 72 h, read-out: A549 IC50 (μM)): 0.05 to 0.5 µM
CC(Oc1cc(NCC2CCOCC2)c2ncc(-c3ccc(C(=O)NC4CC4)cc3)n2n1)c1ccccc1 (centres unmarked) [Example 2-174] |  |  | pIC50 (TTK; read-out: TTK IC50): 7.85; pIC50 (A549; values given as IC50 intervals): 6.30 to 7.30
O=C(NC1CC1)c1ccc(-c2cnc3c(NCc4ccccn4)cc(NC4CCCCC4)nn23)cc1 [Example 2-154] | 8.30 | 6.30 to 7.30 | 
O=C(NC1CC1)c1ccc(-c2cnc3c(NCC4CCOCC4)cc(NC4CCCC4)nn23)cc1F [Example 2-228] |  |  | pIC50 (TTK; read-out: TTK IC50): 8.44; pIC50 (A549; values given as IC50 intervals): 6.30 to 7.30
CC(C)(C)CNc1cc(NCC2CCOCC2)c2ncc(-c3ccc(C(=O)NC4CC4)cc3)n2n1 [Example 2-57] | 8.35 | 6.30 to 7.30 | 
COC(C)CNc1cc(NC2CCCCC2)nn2c(-c3ccc(C(=O)NC4CC4)cc3)cnc12 (centres unmarked) [Example 2-166] | 8.35 | 6.30 to 7.30 | 
O=C(NC1CC1)c1ccc(-c2cnc3c(NCC4CCOCC4)c(Cl)c(OC4CCCC4)nn23)cc1 [Example 2-216] |  |  | pIC50 (TTK; read-out: TTK IC50): 8.57; pIC50 (A549; values given as IC50 intervals): 6.30 to 7.30

— patent US20120059162A1, “FUSED IMIDAZOLE DERIVATIVE HAVING TTK INHIBITORY ACTION” (Oncotherapy Science, Inc., priority 2009, published 2012)
